In patent US12390437B2, “Itaconic acid derivatives and uses thereof intreating an inflammatory disease or a disease associated with an undesirable immune response” (Sitryx Therapeutics Limited, priority 2019, dated 2025) one finds IC50, Emax and EC50 data, which are given here for five compounds.

Experiment [1] deals with IL-1β cytokine output from THP-1s. The experiment can be described thus: THP-1 AlphaLISA IL-1β cytokine assay. It is filed as cell-based, human. Particulars: Homo sapiens, THP-1, PMA-differentiated THP-1 cells, LPS 24 hr then Nigericin 1 hour; read-out: IL-1β (IC50). In a few lines: (§1)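 Cells are differentiated with PMA over 72 h, switched to 1% FBS medium and treated with compound for 30 min before LPS stimulation for 24 h. Nigericin is added for a final hour, and secreted cytokine is measured by AlphaLISA, with IC50 fitted from percent inhibition.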

The subject of experiment [2] is IL-6 cytokine output from THP-1s. The experiment is described as follows: THP-1 AlphaLISA IL-6 cytokine assay. Type of experiment: cell-based, human. The conditions noted are these: Homo sapiens; PMA-differentiated THP-1 cells, LPS 24 hr then Nigericin 1 hour. In a few lines:
as §1

For a further experiment, the system named is NRF2. The experiment is described as follows: NRF2 +/-GSH activation assay (DiscoverX PathHunter NRF2 translocation kit, U2OS cells). It is filed as cell-based. The conditions noted are these: Homo sapiens, GSH condition not stated in Table 5; for Emax: U2OS, normalised to dimethyl fumarate 'High' control, read-out: NRF2 activation Emax; for EC50: U2OS PathHunter cells, 6 hours, read-out: NRF2 activation EC50. In outline:
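PathHunter U2OS cells, plated 24 hrs, measured NRF2 nuclear translocation by enzyme-fragment complementation luminescence after 6 hours compound exposure at 37 °C. For +GSH, compound was pre-incubated 30 minutes with GSH (6 mM working stock). EC50 from % activation normalised to dimethyl fumarate high control.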

For `C=C(CC(=O)OCCCCCCCC)C(=O)OCC(=O)N(C)CC(=O)O` [Example 98, 2-(N-methyl-2-((2-methylene-4-(octyloxy)-4-oxobutanoyl)oxy)acetamido)acetic acid], the IC50 in experiment [1] came out at 2.1 µM. For the same compound, it took 4.3 µM to reach half-maximal inhibition in experiment [2] (IC50). Also, in the experiment on NRF2, the Emax turned out to be 193% and the EC50 was 14.7 µM.
On to `C=C(CC(=O)OCCCCCCCC)C(=O)OCC(=O)N1CCC[C@H]1C(=O)O` [Example 99, (2-((2-methylene-4-(octyloxy)-4-oxobutanoyl)oxy)acetyl)-L-proline], for which the IC50 in experiment [1] was 1.9 µM; in experiment [2], 2.5 µM. Besides, the Emax in the experiment with NRF2 came out at 227%. In the experiment with NRF2, the EC50 was 37.6 µM.
On the same counts, the results for `C=C(CC(=O)OCCCCCCCC)C(=O)OC(C)C(=O)N(C)CC(=O)O` (centres unmarked) [Example 100, N-methyl-N-(2-((2-methylene-4-(octyloxy)-4-oxobutanoyl)oxy)propanoyl)glycine] are 11 µM, 5.1 µM, 195% and 48.7 µM.
On the same counts, the results for `C=C(CC(=O)OCCCCCCCC)C(=O)OC(C)C(=O)N1CCC[C@H]1C(=O)O` (stereo partly drawn) [Example 101, (2-((2-methylene-4-(octyloxy)-4-oxobutanoyl)oxy)propanoyl)-L-proline] are 15.2 µM, 4.7 µM, 186% and 37.9 µM.
On the same counts, the results for `C=C(CC(=O)OCCCCCCCC)C(=O)OC(C)C(=O)NCC(=O)O` (centres unmarked) [Example 102, (2-((2-methylene-4-(octyloxy)-4-oxobutanoyl)oxy)propanoyl)glycine] are 1.5 µM, 1.1 µM, 191% and 6.5 µM.
